Reference: ChEMBL document CHEMBL1136367, “Design and synthesis of novel benzofurans as a new class of antifungal agents targeting fungal N-myristoyltransferase. Part 3” (Bioorg Med Chem Lett, 2003)

Key:
Candida albicans [1] = test: In vitro antifungal activity against Candida albicans (CY1002) in YNBPB medium; type: functional, organism-based
[2] = Pharmacokinetic property when administered intravenously in rat at 2 mg/kg; type: ADME, organism-based; set-up: dose 2 mg/kg, route intravenous; conditions: in vivo, iv
[3] = target: Peptide N-myristoyltransferase (Candida albicans); test: In vitro inhibitory activity against Candida albicans Nmt (CaNmt) using substrate peptide GLTISKLFR-R-NH2 (0.5 uM) and myristoyl-CoA (0.5 uM)
Candida albicans [4] = test: In vitro antifungal activity against Candida albicans (CY1002) in 80% calf serum; type: functional, organism-based
[5] = Half life period was evaluated in rat plasma; type: ADME, organism-based
[6] = target: Peptide N-myristoyltransferase (Aspergillus fumigatus); test: In vitro inhibitory activity against Aspergillus fumigatus Nmt (AfNmt) using substrate peptide GLTISKLFR-R-NH2 (0.5 uM) and myristoyl-CoA (0.5 uM)
[7] = target: T1, Peptide N-myristoyltransferase (Homo sapiens, UniProt P30419+O60551); test: In vitro inhibitory activity against human Nmt (HsNmt) using 0.5 uM peptide GNAASAR-R-NH2 and 0.5 uM myristoyl-CoA; type: protein assay
T1 sequence (P30419 whole entry): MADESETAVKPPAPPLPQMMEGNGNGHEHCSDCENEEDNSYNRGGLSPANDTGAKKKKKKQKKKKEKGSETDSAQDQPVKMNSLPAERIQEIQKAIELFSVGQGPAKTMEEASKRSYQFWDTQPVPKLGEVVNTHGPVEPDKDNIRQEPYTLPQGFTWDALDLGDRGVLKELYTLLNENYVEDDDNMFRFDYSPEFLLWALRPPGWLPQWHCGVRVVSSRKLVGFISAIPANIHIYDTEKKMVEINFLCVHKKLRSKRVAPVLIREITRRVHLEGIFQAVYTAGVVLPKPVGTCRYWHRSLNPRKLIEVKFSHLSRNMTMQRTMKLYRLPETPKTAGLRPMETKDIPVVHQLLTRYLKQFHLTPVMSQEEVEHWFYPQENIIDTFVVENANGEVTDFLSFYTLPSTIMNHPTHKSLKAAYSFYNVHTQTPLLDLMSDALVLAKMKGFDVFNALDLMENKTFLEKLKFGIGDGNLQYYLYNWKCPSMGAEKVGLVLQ
T1 sequence (O60551 whole entry): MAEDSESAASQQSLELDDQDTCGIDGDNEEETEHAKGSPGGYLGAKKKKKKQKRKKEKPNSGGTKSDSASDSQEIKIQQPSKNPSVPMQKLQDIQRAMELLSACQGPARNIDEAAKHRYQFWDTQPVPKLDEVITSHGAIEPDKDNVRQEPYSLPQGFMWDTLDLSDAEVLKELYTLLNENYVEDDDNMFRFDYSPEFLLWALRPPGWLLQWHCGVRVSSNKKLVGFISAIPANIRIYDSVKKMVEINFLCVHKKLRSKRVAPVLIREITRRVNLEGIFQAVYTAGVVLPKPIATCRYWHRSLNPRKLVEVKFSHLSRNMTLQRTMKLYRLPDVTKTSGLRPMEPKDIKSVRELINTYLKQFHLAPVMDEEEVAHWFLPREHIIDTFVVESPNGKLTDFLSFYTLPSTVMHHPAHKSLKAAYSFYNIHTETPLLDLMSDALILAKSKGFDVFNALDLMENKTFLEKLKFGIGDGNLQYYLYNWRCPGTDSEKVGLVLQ

Rattus norvegicus [8] = species: Rattus norvegicus; test: Antifungal activity determined in rat infected with Candida albicans CY1002.; type: functional
[9] = target: Peptide N-myristoyltransferase (Candida albicans); test: In vitro inhibitory activity against candida albicans Nmt (CaNmt) using substrate peptide GLTISKLFR-R-NH2 (0.5 uM) and myristoyl-CoA (0.5 uM)
Candida albicans [10] = test: In vitro antifungal activity against Candida albicans (CY1002) in YNBPB medium in rat; type: functional, organism-based
[11] = target: Peptide N-myristoyltransferase (Aspergillus fumigatus); test: In vitro inhibitory activity against aspergillus fumigatus Nmt (AfNmt) using substrate peptide GLTISKLFR-R-NH2 (0.5 uM) and myristoyl-CoA (0.5 uM)
Rattus norvegicus [12] = species: Rattus norvegicus; test: Antifungal activity determined in rat infected with Candida albicans CY1002; type: functional
[13] = target: Peptide N-myristoyltransferase (Candida albicans); test: Inhibitory activity against Candida albicans Nmt (CaNmt) using substrate peptide GLTISKLFR-R-NH2 (0.5 uM) and myristoyl-CoA (0.5 uM)
Mus musculus = test: In vivo efficacy expressed as effective dose against murine systematic candidiasis model; type: functional
[14] = target: Peptide N-myristoyltransferase (Candida albicans); test: In vitro inhibitory activity against Candida albicans Nmt (CaNmt) using substrate peptide GLTISKLFR-R-NH2 (0.5 uM) and myristoyl-CoA (0.5 uM); remark: listed apart in the source

| SMILES | IC50 (Candida albicans [1]) [nM] | AUC [2] [ng·h/mL] | IC50 [3] [nM] | IC50 (Candida albicans [4]) [nM] | half-life [5] [min] | IC50 [6] [nM] | IC50 [7] [nM] | also measured |
| --- | --- | --- | --- | --- | --- | --- | --- | --- |
| Cc1nc(C(=O)c2oc3cccc(OCCCNCc4cccnc4)c3c2C)sc1C | 39 | 320 | 0.71 | 190 | 39 | 4300 | 83000 | – |
| Cc1ccc(C(=O)c2oc3cccc(OCCCNCc4cccnc4)c3c2C)nc1 | – | 440 | – | 82 | 34.8 | – | > 480000 | ED50 (Rattus norvegicus [8]): 15 mg/kg; IC50 [9]: 0.39 nM; IC50 (Candida albicans [10]): 36 nM; IC50 [11]: 4100 nM |
| C=CCn1c(C(=O)c2oc3cccc(OCCCNCc4cccnc4)c3c2C)nc2ccccc21 | 48 | 570 | 0.58 | 420 | 48 | 5100 | 85000 | ED50 (Rattus norvegicus [12]): 8.7 mg/kg |
| Cc1c(C(=O)c2ccccc2)oc2cccc(OCCCNCc3cccnc3)c12 | – | – | – | – | – | – | – | IC50 [13]: 1200 nM |
| Cc1c(C(O)c2ccccn2)oc2cccc(OCCCNCc3cccnc3)c12 (stereo not given) | – | – | – | – | – | – | – | IC50 [13]: 47 nM |
| Cc1c(C(=O)c2nc3ccccc3n2C)oc2cccc(OCCCNCc3cccnc3)c12 | 35 | 450 | 0.4 | 1200 | 35.4 | 13000 | 94000 | – |
| Cc1c(C(=O)c2nccs2)oc2cccc(OCCCNCc3cccnc3)c12 | 540 | – | 91 | 8300 | – | 63000 | 25000 | – |
| Cc1c(COc2ccc(F)c(F)c2F)oc2cccc(OCCCNCc3cccnc3)c12 | – | – | – | – | 120 | – | – | ED50 (Mus musculus): 7.1 mg/kg |
| Cc1c(C(=O)c2cccnc2)oc2cccc(OCCCNCc3cccnc3)c12 | – | – | – | – | – | – | – | IC50 [13]: 62 nM |
| Cc1c(C(=O)c2ncccc2C(F)(F)F)oc2cccc(OCCCNCc3cccnc3)c12 | 340 | 590 | 43 | 5100 | 33.6 | 11000 | > 430000 | – |
| Cc1c(Cc2ccccn2)oc2cccc(OCCCNCc3cccnc3)c12 | – | – | – | – | – | – | – | IC50 [13]: 1900 nM |
| Cc1c(C(=O)c2ccccn2)oc2cccc(OCCCNCc3cccnc3)c12 | 65 | 410 | – | 470 | 32.4 | 42000 | 340000 | IC50 [14]: 3.5 nM |
| Cc1c(C(=O)c2nccn2C)oc2cccc(OCCCNCc3cccnc3)c12 | 120 | 530 | – | 3000 | 27 | – | – | – |
| Cc1c(C(=O)c2ccco2)oc2cccc(OCCCNCc3cccnc3)c12 | 4600 | – | 1400 | 25000 | – | 150000 | 280000 | – |
| Cc1csc(C(=O)c2oc3cccc(OCCCNCc4cccnc4)c3c2C)n1 | 140 | 470 | 2 | 740 | 20.4 | 18000 | 130000 | – |
| Cc1c(C(=O)c2nc3ccccc3n2C(C)C)oc2cccc(OCCCNCc3cccnc3)c12 | 19 | 810 | 1.3 | 2700 | 51.6 | 480 | 99000 | – |
| OC(Cn1cncn1)(Cn1cncn1)c1ccc(F)cc1F [FLUCONAZOLE] | – | 19600 | – | – | 240 | – | – | – |
